The results in this text go back to PubChem BioAssay AID651717 (Broad Institute, 2012).

Structures are written as SMILES.

The test system of this assay is mESC Bmi1-luciferase reporter, firefly/renilla ratio, 24 h. The assay can be described thus: Bmi1-luciferase reporter activators in mESC, dose response, esBAF inhibitor project, mouse embryonic stem cells, cherry-pick (AID 651717).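 Note: luciferase knocked into Bmi1 locus with EF-1a renilla as cell number control; rising ratio signals esBAF inhibition which derepresses Bmi1.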 For orientation: A reporter such as luciferase makes a cellular process visible.
On to `COc1cc(CNc2ccc(N3CCN(C(C)=O)CC3)cc2)ccc1OCc1ccc(F)cc1`, for which the AC40 is 3.93 µM.

On to `Cc1cccc(Nc2nc(-c3sc(C)nc3C)cs2)c1`, for which the AC40 is 2.71 µM.

Consider `O=C(COc1ccc(/C=N/NC(=O)c2cc3ccccc3o2)cc1Br)Nc1ccccc1`, for which the AC40 was 4.24 µM.

For `Clc1ccc(-c2cn3cccnc3n2)cc1Cl`, the AC40 was 3.56 µM.

For `Cc1csc(NC(=O)Cc2c(F)cccc2Cl)n1`, the AC40 was 8.57 µM.

For the molecule `Cc1ccc(C(=O)Nc2ccc(Br)c(C(F)(F)F)c2)cc1`, the AC40 is 1.73 µM.

As for `COc1cccc(C(=O)c2cc3cc(Cl)ccc3[nH]2)c1`, the AC40 was 3.55 µM.
